{"source": "paper PMC12794186", "about": "“Covalent Alkynylpyridopyrimidinones Targeting Cysteine 775 of the Epidermal Growth Factor Receptor Overcome Resistance to Current Therapies” (Journal of Medicinal Chemistry, 2025)", "key": {"[1]": {"tested_on": "EGFR phosphorylation (Tyr1068) in H1975 (L858R, T790M) cells", "test": "HTRF cellular EGFR phosphorylation", "type": "cell-based", "conditions": "Homo sapiens, NCI-H1975; HTRF, mean ± SD of 4 experiments; read-out: H1975 pEGFR IC50", "method": "Cells were plated at 20,000 cells per well in 96-well plates and placed at 37 °C with 5% CO2. Compounds were reconstituted in DMSO. Once adhered (after 24 h), cells were treated with compounds at a final concentration of 0.1% DMSO in media. Compounds were added to duplicate wells and incubated 37 °C for 3 h with 5% CO2. For A431 cells 0.5 h before the end of incubation; 100 ng/mL of EGF (Thermo Fisher, Cat. No. PHG0311) was added to all compound-treated cells as well as control. Compound and media were removed from the cells, and then 50 μL of HTRF lysis buffer was added (lysis buffer was diluted from 4× stock to 1× in deionized (DI) water, with 1% blocking agent also added). Cells were lysed on a plate shaker (2000 rpm) for 30 min at room temperature. pEGFR expression was assessed using the Human Phospho-EGFR (Tyr1068) cellular detection kit (Revvity, Cat. No. 64EG1PEH). Total EGFR expression was monitored using the Human Total EGFR cellular detection kit (Revvity, Cat. No. 64NG1PEH) as per the manufacturer’s instructions. […] Results were calculated as the ratio of pEGFR/total EGFR and then the percentage of 0 μM control."}, "wild-type EGFR (WT-EGFR)": {"target": "T1, wild-type EGFR (WT-EGFR) (Homo sapiens, UniProt P00533)", "T1 construct": "made in house; host or cells: SF9 insect cells (MultiBac)", "test": "TR-FRET fluorescent probe displacement assay", "type": "binding", "conditions": "TR-FRET, n > 3", "method": "Compounds (dissolved to 100 mM in DMSO) were dispensed into black low volume 384 well assay plates (Corning) over a final concentration range of 100,000, 30,000, 10,000, 3000, 1000, 300, 100, 30, 10, and 3 nM using an Echo 550 (Labcyte). Positive control compound and DMSO as a negative control were dispensed into the first and last well, respectively. Each well was backfilled with DMSO to a final volume of 200 nL, resulting in final assay DMSO concentrations of 1%. […] The data were analyzed using Graphpad Prism/Dotmatics Studies Software. Assays conducted in technical replicate and repeated as a biological duplicate."}, "TYK2": {"tested_on": "TYK2", "test": "Kinase selectivity panel", "type": "binding", "conditions": "1.0 µM"}, "mLTC-EGFR": {"target": "mLTC-EGFR (Homo sapiens, UniProt P00533, C797S/L858R/T790M)", "test": "Intact protein mass spectrometry, covalent adduct formation", "type": "binding", "conditions": "intact protein mass spectrometry"}}, "note": "Where two headings read alike, the source gives them in different places.", "data": [{"compound": "C#Cc1cc(=O)n(-c2ccccc2)c2nc(Nc3ccc(N(C)CCN(C)C)cc3)ncc12", "note": "[Compound 7, 2-((4-((2-(Dimethylamino)ethyl)(methyl)amino)phenyl)amino)-5-ethynyl-8-phenylpyrido[2,3-d]pyrimidin-7(8H)-one]", "values": [{"measurement": "IC50", "setting": "[1]", "value": "140 ± 21", "unit": "nM"}, {"measurement": "IC50", "setting": "wild-type EGFR (WT-EGFR); read-out: WT-EGFR IC50", "value": 200, "unit": "nM"}, {"measurement": "IC50", "setting": "wild-type EGFR (WT-EGFR); read-out: WT-EGFR pIC50 ± std dev (converted)", "value": 200, "unit": "nM"}, {"measurement": "Mean (Percent Control)", "setting": "TYK2", "value": 58.5, "unit": "Percent Control"}, {"measurement": "covalent adduct formation, in words", "setting": "mLTC-EGFR", "value": "formed only a single adduct"}]}]}
